ChEMBL document CHEMBL3397039, “Anti-inflammatory activity of phenolic compounds from the whole plant of Scutellaria indica” (Bioorg Med Chem Lett, 2015)

Key:
RAW264.7 [1] = assay: Anti-inflammatory activity in mouse RAW264.7 cells assessed as inhibition of LPS-induced nitric oxide production by Griess reaction based method; assay type: functional, cell-based
RAW264.7 [2] = assay: Toxicity against mouse RAW264.7 cells at 30 uM after 24 hrs in absence of LPS by MTT assay; assay type: cell-based; details: raw264.7, 24 h
RAW264.7 [3] = assay: Toxicity against mouse RAW264.7 cells at 30 uM after 24 hrs in presence of LPS by MTT assay; assay type: cell-based; details: raw264.7, 24 h
RAW264.7 [4] = assay: Effect on alpha-tubulin protein expression in mouse RAW264.7 cells up to 30 uM by Western blotting method; assay type: ADME, cell-based
RAW264.7 [5] = assay: Inhibition of LPS-induced iNOS protein expression in mouse RAW264.7 cells by Western blotting method; assay type: functional, cell-based

SMILES	IC50 (RAW264.7 [1])	Activity (RAW264.7 [2])	Activity (RAW264.7 [3])	Activity (RAW264.7 [4])	inhibition (RAW264.7 [5])
COc1ccc([C@@H]2CC(=O)c3c(O)c(OC)c(OC)c(OC)c3O2)cc1	27.8 µM	Non-toxic	Non-toxic	–	–
O=c1cc(-c2ccc(O)c(O)c2)oc2cc(O)cc(O)c12 [LUTEOLIN]	7.2 µM	Non-toxic	Non-toxic	Non-toxic	Dose-dependent effect
O=C(O)[C@H]1O[C@@H](Oc2c(O)cc(O)c3c(=O)cc(-c4ccccc4)oc23)[C@H](O)[C@@H](O)[C@@H]1O	> 30 µM	Non-toxic	Non-toxic	–	–
COC(=O)[C@H]1O[C@@H](Oc2ccccc2[C@@H]2CC(=O)c3c(O)cc(OC)c(OC)c3O2)[C@H](O)[C@@H](O)[C@@H]1O	> 30 µM	Non-toxic	Non-toxic	–	–
COC(=O)[C@H]1O[C@@H](Oc2cc(O)c3c(c2OC)O[C@H](c2cccc(OC)c2)CC3=O)[C@H](O)[C@@H](O)[C@@H]1O	> 30 µM	Non-toxic	Non-toxic	–	–
COc1cc(O)c2c(c1OC)O[C@H](c1cc(O)ccc1O[C@@H]1O[C@H](COC(C)=O)[C@@H](O)[C@H](O)[C@H]1O)CC2=O	> 30 µM	Non-toxic	Non-toxic	–	–
COC(=O)[C@H]1O[C@@H](Oc2c(O)cc(O)c3c(=O)cc(-c4ccccc4)oc23)[C@H](O)[C@@H](O)[C@@H]1O	> 30 µM	Non-toxic	Non-toxic	–	–
COc1ccccc1[C@@H]1CC(=O)c2c(O)cc(O[C@@H]3O[C@H](CO)[C@@H](O)[C@H](O)[C@H]3O)c(OC)c2O1	> 30 µM	Non-toxic	Non-toxic	–	–
COc1c(O[C@@H]2O[C@H](C(=O)O)[C@@H](O)[C@H](O)[C@H]2O)cc(O)c2c1O[C@H](c1ccccc1O)CC2=O	> 30 µM	Non-toxic	Non-toxic	–	–
COc1cc(O)c2c(c1OC)O[C@H](c1c(O)cccc1O[C@@H]1O[C@H](CO)[C@@H](O)[C@H](O)[C@H]1O)CC2=O	> 30 µM	Non-toxic	Non-toxic	–	–
COc1cc(O)c2c(c1OC)O[C@H](c1cc(O)ccc1O[C@@H]1O[C@H](CO)[C@@H](O)[C@H](OC(=O)c3ccc(O)cc3)[C@H]1O)CC2=O	> 30 µM	Non-toxic	Non-toxic	–	–
COc1c(O)cc(O)c2c(=O)cc(-c3ccc(O)cc3)oc12 [4'-HYDROXYWOGONIN]	12.5 µM	Non-toxic	Non-toxic	–	–
